Test results from patent US4038278A, “4-Aminopyrimidium derivatives and preparation thereof” (Eisai Co., Ltd., priority 1974, dated 1977).
Read-outs that look alike come from different tables or passages of the source.

How the values were obtained:
[1] = tested on: acetic acid Writhing syndrome; test: Anti-acetic acid Writhing test, oral, in mice; assay type: in vivo, mouse (dd strain); details: for ED50: Mus musculus, po, read-out: ED50 (anti-acetic acid Writhing)
Description: Comparative tests for anti-acetic acid Writhing activity in mice were made to the Compound A of the present invention and 4-amino-pyrimidine-N^1 -phenacylbromide (hereinafter referred to as Compound C), using Aspirin as a control compound. The test compounds were respectively suspended in an of aqueous solution of containing five percent of gum Arabic. Eight male mice of dd strain weighing approximately 20 - 23g were used as the test animals. The mice were made to fast for about 19 hours.
After 50 minutes or 170 minutes of administration of the test compounds, 0.1 ml of 0.7% acetic acid solution per 10 g. of the body weight of the test animal was injected intraperitoneally. Regarding the expansion of the hind paw of the mice induced during 15 minutes after the injection, a number of Writhing syndromes were encountered and recorded. Effects of the respective test compounds against the usual behavior of the mice were also observed. In the above test, 5% gum arabic solution per se was administered to the control animal.
Various doses of the respective compounds were orally administered to eight mice. After 1 or 3 hours of the administration, a anti-acetic acid Writhing test was carried out.

[2] = tested on: stomach mucosa; test: Degree of gastric trouble (visible observation of stomach mucosa); assay type: in vivo, rat (Wistar strain); details: for Degree of gastric trouble: 100 mg/kg p.o., sum of scores (0-3) of 4 rats; for degree of gastric trouble in words: 100 mg/Kg p.o.
Excerpt: 2. Degree of gastric trouble
The rats used in above test of anti-edematic effects were slaughtered, and their stomaches were visibly observed in accordance with the under-mentioned bases. Measurement values were decided by summing up the respective data of 4 tests of each group.
Visible observation of the stomach mucosa
No abnormality is recognized
Slight edema, congestion or slight erosion
Scattered or limitted erosion and spotted
Heavy erosion, linear bleeding or enlarged

[3] = tested on: Carrageenin edema of the hind paw of the rat; test: Anti-edematic effect, Carrageenin paw edema method, oral, in rats; assay type: in vivo, rat (Wistar strain); details: for Anti-edematic ratio (%) / Comparison with Control Compound (anti-edematic ratio): 100 mg/kg p.o.; for Anti-edematic ratio (%): rats, 3 hours after Carrageenin; for Comparison with Control Compound (anti-edematic ratio): Control compound (Aspirin) = 100; for anti-edematic / anti-inflammatory effect in words: 100 mg/Kg p.o.
Description: Test animal: For the respective compounds, four male rats of the Wistar strain weighing approximately 150g were used. The test animals were made to fast for approximately 16 hours.
The anti-edematic test is carried out by determining the increase of edema due to the injection of […], in accordance with the paw edema method. [see Winter. C. A. et al; Proc. Soc. exp.
The test compounds were respectively suspended in five percent of aqueous solution of gum Arabic, and the suspensions were orally administered to the rats one hour before the injection of the Carrageenin. Activities were determined by measuring the volume of the hind paw of the rat three hours after the administration of the Carrageenin.

[4] = tested on: Stress Ulcer (Immersion); test: Stress Ulcer (Immersion) at 23-25° C. for 20 hrs; assay type: in vivo, rat (Wistar strain); details: for effect on stress ulcer in words: 300 mg/Kg (p.o.)
Description: (§1) Using rats of Wistar strain as test animals weighing about 150 - 160 g., the anti-ulcer activities were measured in accordance with the conventional manner with respect to the following four (4) items.
i. Stress Ulcer (Immersion) at 23° - 25° C. for 20 hrs.

[5] = pH of the test compound; assay type: physicochemical; details: footnote of Table 5
[6] = tested on: Shay Ulcer; test: Effect on Shay Ulcer in rats (17hr. pylorus-ligated rats); assay type: in vivo, rat (Wistar strain); details: for Inhibitory % (ulcer index) / Ulcer Index (mm): 300 (mg/μg [sic]); for Inhibitory % (ulcer index) / Ulcer Index (mm) / Inhibitory % (titrable acidity) / Inhibitory % (volume) / Titrable Acidity to pH 7.0 / Vol(ml) 100g B.W.: 17hr pylorus-ligated; for Ulcer Index (mm): Compound A n=2, individual values (0),(84), Compound C n=6, * P<0.05; for Inhibitory % (titrable acidity) / Inhibitory % (volume) / Titrable Acidity to pH 7.0 / Vol(ml) 100g B.W.: dose not given in Table 7; for Vol(ml) 100g B.W.: Compound A n=2, individual values (1.11),(3.29); for inhibitory effect against the appearance of ulcer in words: Tables 6 and 7
Description: as §1
iii. Effect on Shay Ulcer in rats. (Method by 17hr. pylorusligated rats)

[7] = tested on: gastric secretion; test: Effect on gastric secretion in 4hr. pylorus-ligated rats (intraduodenal); assay type: in vivo, rat (Wistar strain)
Description: as §1
ii. Effect on gastric secretion in 4hr. pylorus-ligated rats. (Intraduodenal administration)

[8] = tested on: gastric secretion stimulated by carbachol; test: Effect on gastric secretion stimulated by carbachol in acute gastric fistula rats; assay type: in vivo, rat (Wistar strain); details: FIG. 1
Description: as §1
iv. Effect on gastric secretion in acute gastric fistula rats.
Comparative tests were carried out to measure the effects on gastric secretion stimulated by carbachol and the effects of Compounds A and C on eight rats of Wistar strain. The results are graphically shown in the accompanying FIG. 1.

[9] = 150 mg/Kg p.o., * P<0.05 for Compound C
[10] = 300 mg/Kg p.o., ** P<0.01 for Compound A, * P<0.05 for Compound C
[11] = 3hr, 160 mg/Kg p.o., ** P<0.01 for Compound C
[12] = 150 (mg/μg [sic]) intraduodenal
[13] = 300 (mg/μg [sic]) intraduodenal

Structure (SMILES): CC(=O)Oc1ccccc1C(=O)O [Aspirin, reference compound]
- ED50 ([1]; 1 h): 410 mg/kg
- ED50 ([1]; 3 h): 253 mg/kg
- Degree of gastric trouble [2]: 12
- Anti-edematic ratio (%) [3]: 35.8%
- Comparison with Control Compound (anti-edematic ratio) [3]: 100

Structure (SMILES): COc1ccc(C(=O)C[n+]2ccc(N)nc2)cc1 [Compound A, 4-aminopyrimidine N^1-(p-methoxyphenacyl)bromide]
- Inhibitory % (ulcer index) ([4]; 150 mg/Kg p.o.): 28.1%
- Ulcer Index (mm) [4, 9]: 37.1 ± 5.9 mm
- effect on stress ulcer in words [4]: effective
- Inhibitory % (ulcer index) ([4]; 300 mg/Kg p.o.): 70.3%
- Ulcer Index (mm) [4, 10]: 15.3 ± 6.1 mm
- pH of the test compound [5]: 6.3
- Inhibitory % (ulcer index) [6]: 23.4%
- Ulcer Index (mm) [6]: 42 mm
- Inhibitory % (titrable acidity) [6]: 45.9%
- Inhibitory % (volume) [6]: 54.1%
- Titrable Acidity to pH 7.0 [6]: 188.2 ± 72.0 μ Eq/100g B.W.
- Vol(ml) 100g B.W. [6]: 2.20 ml/100g B.W.
- inhibitory effect against the appearance of ulcer in words [6]: outstanding inhibitory effects
- No. of Writhing Syndrome (m±S.E.) ([1]; 1hr, 20 mg/Kg p.o.): 41.4 ± 5.6
- % of Protection ([1]; 1hr, 40 mg/Kg p.o.): 18%
- No. of Writhing Syndrome (m±S.E.) ([1]; 1hr, 40 mg/Kg p.o.): 33.1 ± 3.7
- % of Protection ([1]; 1hr, 80 mg/Kg p.o.): -15%
- No. of Writhing Syndrome (m±S.E.) ([1]; 1hr, 80 mg/Kg p.o.): 46.3 ± 3.6
- No. of Writhing Syndrome (m±S.E.) ([1]; 1hr, 160 mg/Kg p.o.): 29.4 ± 5.1
- % of Protection ([1]; 1hr, 160 mg/Kg p.o., * P<0.05): 27%
- No. of Writhing Syndrome (m±S.E.) ([1]; 1hr, 320 mg/Kg p.o.): 17.1 ± 4.6
- % of Protection ([1]; 1hr, 320 mg/Kg p.o., ** P<0.01): 58%
- % of Protection ([1]; 3hr, 20 mg/Kg p.o.): -13%
- No. of Writhing Syndrome (m±S.E.) ([1]; 3hr, 20 mg/Kg p.o.): 34.6 ± 5.4
- % of Protection ([1]; 3hr, 40 mg/Kg p.o.): 43%
- No. of Writhing Syndrome (m±S.E.) ([1]; 3hr, 40 mg/Kg p.o.): 17.6 ± 4.8
- % of Protection ([1]; 3hr, 80 mg/Kg p.o.): 25%
- No. of Writhing Syndrome (m±S.E.) ([1]; 3hr, 80 mg/Kg p.o.): 23.1 ± 6.6
- No. of Writhing Syndrome (m±S.E.) ([1]; 3hr, 160 mg/Kg p.o.): 21.8 ± 4.0
- % of Protection [1, 11]: 29%
- No. of Writhing Syndrome (m±S.E.) ([1]; 3hr, 320 mg/Kg p.o.): 3.8 ± 2.7
- % of Protection ([1]; 3hr, 320 mg/Kg p.o., ** P<0.01): 88%
- Inhibitory % (titrable acidity) [7, 12]: 92.4%
- Inhibitory % (volume) [7, 12]: 73.3%
- Titrable acidity to PH 7.0 [7, 12]: 14.4 ± 4.2 μEq/100g B.W.
- Vol/100 g B.W.(ml) [7, 12]: 0.5 ± 0.06 ml/100 g B.W.
- Inhibitory % (titrable acidity) [7, 13]: 96.4%
- Inhibitory % (volume) [7, 13]: 64.4%
- Titrable acidity to PH 7.0 [7, 13]: 6.8 ± 3.4 μEq/100g B.W.
- Vol/100 g B.W.(ml) [7, 13]: 0.72 ± 0.24 ml/100 g B.W.
- degree of gastric trouble in words [2]: extremely less than that of the Control compound
- Degree of gastric trouble [2]: 2
- anti-edematic / anti-inflammatory effect in words [3]: equal to, or more than that of the Control compound
- Anti-edematic ratio (%) [3]: 50.0%
- Comparison with Control Compound (anti-edematic ratio) [3]: 140

Structure (SMILES): Cc1cccc(C(=O)C[n+]2ccc(N)nc2)c1 [Compound B, 4-aminopyrimidine N^1-(m-methylphenacyl)bromide]
- degree of gastric trouble in words [2]: extremely less than that of the Control compound
- Degree of gastric trouble [2]: 6
- anti-edematic / anti-inflammatory effect in words [3]: equal to, or more than that of the Control compound
- Anti-edematic ratio (%) [3]: 35.3%
- Comparison with Control Compound (anti-edematic ratio) [3]: 99

Structure (SMILES): Nc1cc[n+](CC(=O)c2ccccc2)cn1 [Compound C, 4-amino-pyrimidine-N^1-phenacylbromide]
- Inhibitory % (ulcer index) ([4]; 150 mg/Kg p.o.): 23.4%
- Ulcer Index (mm) [4, 9]: 53.1 ± 5.8 mm
- effect on stress ulcer in words [4]: effective
- Inhibitory % (ulcer index) ([4]; 300 mg/Kg p.o.): 66.2%
- Ulcer Index (mm) [4, 10]: 23 ± 6.3 mm
- pH of the test compound [5]: 5.8
- Inhibitory % (ulcer index) [6]: 64.8%
- Ulcer Index (mm) [6]: 19 ± 7 mm
- Inhibitory % (titrable acidity) [6]: -19.3%
- Inhibitory % (volume) [6]: 34.5%
- Titrable Acidity to pH 7.0 [6]: 414.8 ± 83.0 μ Eq/100g B.W.
- Vol(ml) 100g B.W. [6]: 3.14 ± 0.43 ml/100g B.W.
- inhibitory effect against the appearance of ulcer in words [6]: outstanding inhibitory effects
- % of Protection ([1]; 1hr, 20 mg/Kg p.o.): 8%
- No. of Writhing Syndrome (m±S.E.) ([1]; 1hr, 20 mg/Kg p.o.): 36.9 ± 3.6
- % of Protection ([1]; 1hr, 40 mg/Kg p.o.): 13%
- No. of Writhing Syndrome (m±S.E.) ([1]; 1hr, 40 mg/Kg p.o.): 34.9 ± 7.3
- % of Protection ([1]; 1hr, 80 mg/Kg p.o.): -12%
- No. of Writhing Syndrome (m±S.E.) ([1]; 1hr, 80 mg/Kg p.o.): 45.3 ± 1.7
- No. of Writhing Syndrome (m±S.E.) ([1]; 1hr, 160 mg/Kg p.o.): 29.9 ± 5.1
- % of Protection ([1]; 1hr, 160 mg/Kg p.o., * P<0.05): 26%
- No. of Writhing Syndrome (m±S.E.) ([1]; 1hr, 320 mg/Kg p.o.): 15.9 ± 5.5
- % of Protection ([1]; 1hr, 320 mg/Kg p.o., ** P<0.01): 61%
- % of Protection ([1]; 3hr, 20 mg/Kg p.o.): -35%
- No. of Writhing Syndrome (m±S.E.) ([1]; 3hr, 20 mg/Kg p.o.): 41.4 ± 5.0
- % of Protection ([1]; 3hr, 40 mg/Kg p.o.): 27%
- No. of Writhing Syndrome (m±S.E.) ([1]; 3hr, 40 mg/Kg p.o.): 22.3 ± 5.3
- % of Protection ([1]; 3hr, 80 mg/Kg p.o.): -19%
- No. of Writhing Syndrome (m±S.E.) ([1]; 3hr, 80 mg/Kg p.o.): 36.4 ± 3.8
- No. of Writhing Syndrome (m±S.E.) ([1]; 3hr, 160 mg/Kg p.o.): 11.0 ± 3.3
- % of Protection [1, 11]: 64%
- No. of Writhing Syndrome (m±S.E.) ([1]; 3hr, 320 mg/Kg p.o.): 12.9 ± 4.6
- % of Protection ([1]; 3hr, 320 mg/Kg p.o., ** P<0.01): 58%
- Inhibitory % (titrable acidity) [7, 12]: 69.7%
- Inhibitory % (volume) [7, 12]: 53.5%
- Titrable acidity to PH 7.0 [7, 12]: 57.0 ± 22.4 μEq/100g B.W.
- Vol/100 g B.W.(ml) [7, 12]: 0.94 ± 0.20 ml/100 g B.W.
- Inhibitory % (titrable acidity) [7, 13]: 88.2%
- Inhibitory % (volume) [7, 13]: 69.3%
- Titrable acidity to PH 7.0 [7, 13]: 22.2 ± 7.6 μEq/100g B.W.
- Vol/100 g B.W.(ml) [7, 13]: 0.62 ± 0.08 ml/100 g B.W.
- inhibitory effect to Maximum Response [8]: about 35%

Structure (SMILES): CC(C)[N+](C)(CCOC(=O)C1c2ccccc2Oc2ccccc21)C(C)C [Propantheline, reference compound]
- Inhibitory % (ulcer index) ([4]; 15 mg/Kg p.o.): 37.0%
- Ulcer Index (mm) ([4]; 15 mg/Kg p.o.): 43.8 ± 12.9 mm
- Inhibitory % (ulcer index) ([4]; 30 mg/Kg p.o.): 61.4%
- Ulcer Index (mm) ([4]; 30 mg/Kg p.o., ** P<0.01): 26.8 ± 7.4 mm
